Experimental data published in patent US20260159536A1, “AKR1C3-ACTIVATED DNA ALKYLATING AGENT, AND MEDICAL APPLICATION THEREOF” (ASCENTAWITS PHARMACEUTICALS, LTD., priority 2021, published 2026).

Experiments:
[1] = system: human lung cancer NCI-H460 cells; assay: In vivo pharmacodynamics, NCI-H460 subcutaneous xenograft model; set-up: species or system BALB/c nude mice; conditions: Day 31
Experimental: BALB/c nude mice were subcutaneously inoculated with human lung cancer NCI-H460 cells to establish a subcutaneous transplantation tumor model of human lung cancer.
The pharmacodynamic analysis of each group in the NCI-H460 CDX model was performed on Day 31 after tumor cell inoculation, and the results were shown in Table 10.

[2] = system: human lung cancer NCI-H460-Luc2 cells (intracranial); assay: In vivo pharmacodynamics, NCI-H460-Luc2 intracranial inoculation CDX model; set-up: species or system BALB/c nude mice; conditions: for Bioluminescence Value (Day 11) / T/C (%) / TGI (%): i.v. QWx3, Day 11
Experimental: The experiment was divided into groups of test drug Paclitaxel 20 mg/kg group, Compound A 2 mg/kg, 4 mg/kg and 8 mg/kg groups and 10% ethanol+10% polyoxyethylene castor oil+80% glucose injection DSW (pH 7.42) vehicle control group (Vehicle group), with 6 mice per group. […] The positive drug Paclitaxel 20 mg/kg group was administered by intraperitoneal injection and administered once a week for 3 weeks.
The pharmacodynamic analysis of each group in the human NCI-H460-luc intracranial inoculation model was performed based on the measured bioluminescence values on day 11 after administration, and the results were shown in Table 14.

[3] = system: HuPrime model PA1222 human pancreatic cancer; assay: In vivo pharmacodynamics, pancreatic cancer PA1222 PDX model; conditions: for Tumor volume: 10 mg/kg i.v.
Experimental: The test was divided into groups of test drug Gemcitabine 120 mg/kg group, test drug Compound A 10 mg/kg and 7.5% anhydrous ethanol+7.5% polyoxyethylene (35) castor oil+85% glucose injection DSW (pH 7.4) vehicle control group, a total of 3 groups, with 5 mice per group. […] Test drug Gemcitabine (Gemcitabine) 120 mg/kg group was administered intraperitoneally, once a week for three consecutive weeks.

[4] = system: HuPrime model LU2505 human lung cancer; assay: In vivo pharmacodynamics, lung cancer LU2505 PDX model; set-up: species or system BALB/c nude mice; conditions: for Tumor volume (x ± S): in mm³ (unit assumed)
[5] = Chiral stability under long-term and accelerated storage conditions; type: physicochemical
Experimental: Isomer stability under long-term and accelerated conditions was studied.
Compound A and isomers A-P1 and A-P2 were investigated for traits and isomeric stability at −20±5° C., 5° C.±3° C., 25° C.±2° C. (60%±5% RH) and 40° C.±2° C.

[6] = MTD assay of AST-3424, single 30 min intravenous drip; type: in vivo, machins; conditions: for maximal tolerance dose: single dose; for day of test substance-related death: male
Experimental: The maximal tolerance dose in machins after a single administration of AST-3424 injection by intravenous drip for 30 minutes was evaluated.

[7] = 25° C. ± 2° C./60% ± 5% RH, 6 months
[8] = 40° C. ± 2° C./75% ± 5% RH, 6 months

O=[N+]([O-])c1ccc(C(OP(=O)(N2CC2)N2CC2)C(F)(F)F)cc1Oc1ccc(-c2ccc(F)cc2)c(F)c1 (racemic) [Compound A]
T/C (%) ([1]; 10 mg/kg, QWx3, i.v.): 8.94%
Tumor volume (x ± S) ([1]; 10 mg/kg, QWx3, i.v., in mm³ (unit assumed)): 164.13 ± 34.01
Tumor volume ([1]; 15 mg/kg i.v.): 125.90 mm^3
Relative tumor volume (x ± S) ([1]; 15 mg/kg, QWx3, i.v.): 0.92 ± 0.22
TGI (%) ([1]; 15 mg/kg, QWx3, i.v.): 93.06%
Bioluminescence Value (Day 11) ([2]; 2 mg/kg): 7.62 ± 2.10 ×10^5 photon/second
T/C (%) ([2]; 2 mg/kg): 0.24%
TGI (%) ([2]; 2 mg/kg): 99.80%
Bioluminescence Value (Day 11) ([2]; 4 mg/kg): 1.62 ± 0.30 ×10^5 photon/second
T/C (%) ([2]; 4 mg/kg): 0.05%
TGI (%) ([2]; 4 mg/kg): 100.03%
Bioluminescence Value (Day 11) ([2]; 8 mg/kg): 1.78 ± 0.42 ×10^5 photon/second
T/C (%) ([2]; 8 mg/kg): 0.06%
TGI (%) ([2]; 8 mg/kg): 100.03%
body weight change ([2]; 2, 4, 8 mg/kg i.v.): little change
toxic side effects (body weight change) ([3]; 10 mg/kg i.v. QWx3): without toxic side effects
Tumor volume ([3]; Day 0): 111.50 mm^3
Tumor volume ([3]; Day 3): 117.62 mm^3
Tumor volume ([3]; Day 7): 113.91 mm^3
Tumor volume ([3]; Day 10): 107.17 mm^3
Tumor volume ([3]; Day 14): 66.08 mm^3
Tumor volume ([3]; Day 17): 42.94 mm^3
Tumor volume ([3]; Day 21): 23.22 mm^3
Tumor volume ([3]; Day 24): 21.20 mm^3
Tumor volume ([3]; Day 28): 12.51 mm^3
Relative tumor volume (x ± S) ([3]; 10 mg/kg, QWx3, i.v., Day 28): 0.10 ± 0.04
T/C (%) ([3]; 10 mg/kg, QWx3, i.v., Day 28): 2.86%
TGI (%) ([3]; 10 mg/kg, QWx3, i.v., Day 28): 97.14%
Tumor volume (x ± S) ([3]; 10 mg/kg, QWx3, i.v., Day 28): 12.51 ± 5.25
Relative tumor volume (x ± S) ([4]; 1.25 mg/kg i.v. QWx3, Day 28): 4.61 ± 1.57
T/C (%) ([4]; 1.25 mg/kg i.v. QWx3, Day 28): 43.14%
TGI (%) ([4]; 1.25 mg/kg i.v. QWx3, Day 28): 56.86%
Tumor volume (x ± S) ([4]; 1.25 mg/kg i.v. QWx3, Day 28): 485.95 ± 175.25
Tumor volume ([4]; 1.25 mg/kg i.v., Day 0): 103.28 mm^3
Tumor volume ([4]; 1.25 mg/kg i.v., Day 4): 156.32 mm^3
Tumor volume ([4]; 1.25 mg/kg i.v., Day 7): 231.55 mm^3
Tumor volume ([4]; 1.25 mg/kg i.v., Day 11): 242.12 mm^3
Tumor volume ([4]; 1.25 mg/kg i.v., Day 14): 291.72 mm^3
Tumor volume ([4]; 1.25 mg/kg i.v., Day 18): 383.24 mm^3
Tumor volume ([4]; 1.25 mg/kg i.v., Day 21): 434.92 mm^3
Tumor volume ([4]; 1.25 mg/kg i.v., Day 25): 478.15 mm^3
Tumor volume ([4]; 1.25 mg/kg i.v., Day 28): 485.95 mm^3
Relative tumor volume (x ± S) ([4]; 2.5 mg/kg i.v. QWx3, Day 28): 1.11 ± 0.56
T/C (%) ([4]; 2.5 mg/kg i.v. QWx3, Day 28): 10.43%
TGI (%) ([4]; 2.5 mg/kg i.v. QWx3, Day 28): 89.57%
Tumor volume (x ± S) ([4]; 2.5 mg/kg i.v. QWx3, Day 28): 102.06 ± 47.51
Tumor volume ([4]; 2.5 mg/kg i.v., Day 0): 103.26 mm^3
Tumor volume ([4]; 2.5 mg/kg i.v., Day 4): 149.02 mm^3
Tumor volume ([4]; 2.5 mg/kg i.v., Day 7): 131.34 mm^3
Tumor volume ([4]; 2.5 mg/kg i.v., Day 11): 109.62 mm^3
Tumor volume ([4]; 2.5 mg/kg i.v., Day 14): 116.57 mm^3
Tumor volume ([4]; 2.5 mg/kg i.v., Day 18): 113.09 mm^3
Tumor volume ([4]; 2.5 mg/kg i.v., Day 21): 103.18 mm^3
Tumor volume ([4]; 2.5 mg/kg i.v., Day 25): 92.38 mm^3
Tumor volume ([4]; 2.5 mg/kg i.v., Day 28): 102.06 mm^3
Relative tumor volume (x ± S) ([4]; 5 mg/kg i.v. QWx3, Day 28): 0.17 ± 0.07
T/C (%) ([4]; 5 mg/kg i.v. QWx3, Day 28): 1.60%
TGI (%) ([4]; 5 mg/kg i.v. QWx3, Day 28): 98.40%
Tumor volume (x ± S) ([4]; 5 mg/kg i.v. QWx3, Day 28): 19.00 ± 8.08
Tumor volume ([4]; 5 mg/kg i.v., Day 0): 103.23 mm^3
Tumor volume ([4]; 5 mg/kg i.v., Day 4): 139.41 mm^3
Tumor volume ([4]; 5 mg/kg i.v., Day 7): 111.31 mm^3
Tumor volume ([4]; 5 mg/kg i.v., Day 11): 62.41 mm^3
Tumor volume ([4]; 5 mg/kg i.v., Day 14): 42.40 mm^3
Tumor volume ([4]; 5 mg/kg i.v., Day 18): 34.32 mm^3
Tumor volume ([4]; 5 mg/kg i.v., Day 21): 30.63 mm^3
Tumor volume ([4]; 5 mg/kg i.v., Day 25): 20.52 mm^3
Tumor volume ([4]; 5 mg/kg i.v., Day 28): 19.00 mm^3
toxic side effects (body weight change) ([4]; 1.25, 2.5, 5 mg/kg i.v. QWx3): without toxic side effects
Isomer peak A-P1 ([5]; 0 month): 49.8%
Isomer peak A-P2 ([5]; 0 month): 50.2%
Isomer peak A-P1 ([5]; 5° C. ± 3° C., 6 months): 49.9%
Isomer peak A-P2 ([5]; 5° C. ± 3° C., 6 months): 50.1%
Isomer transformation ([5]; 5° C. ± 3° C., 6 months): 0.1%
properties and chirality after storage ([5]; 5° C., 25° C./60% RH, 40° C./75% RH, 6 months): essentially unchanged
Isomer peak A-P1 [5, 7]: 49.9%
Isomer peak A-P2 [5, 7]: 50.1%
Isomer transformation [5, 7]: 0.1%
Isomer peak A-P1 [5, 8]: 49.9%
Isomer peak A-P2 [5, 8]: 50.1%
Isomer transformation [5, 8]: 0.1%

C[C@@H](OP(=O)(N1CC1)N1CC1)c1ccc([N+](=O)[O-])c(Oc2cccc(C(=O)N(C)C)c2)c1 [AST-3424]
maximal tolerance dose ([6]; female machins): 1.5 mg/kg
clinical observation ([6]; female monkeys, 1.5 mg/kg): weight loss, decreased food consumption, diarrhoea and vomiting
maximal tolerance dose ([6]; male machins): 0.5 mg/kg
day of test substance-related death ([6]; 1.0 mg/kg): 16 days
day of test substance-related death ([6]; 1.5 mg/kg): 8 days
doses at which death of male monkeys was observed ([6]; single intravenous drip 30 minutes): ≥ 1.0 mg/kg
